Source: paper PMC4393326, “The natural product brartemicin is a high affinity ligand for the carbohydrate-recognition domain of the macrophage receptor mincle” (Medchemcomm, 2015)

What was measured:
[1] = target: T1, CRD from bovine mincle (Bos taurus, UniProt E1BHM0); test: Competition binding assay: inhibition of radioiodinated Man31-bovine serum albumin binding to immobilized biotin-tagged CRD; details: for Ki: inhibition of mannose-conjugated serum albumin binding to bovine mincle CRD, average ± s.d. for three independent experiments; for Reduction in binding affinity compared to brartemicin / Rel. affinity (affinity relative to α,α-trehalose): bovine mincle CRD; for Rel. affinity (affinity relative to α,α-trehalose): α,α-trehalose = 1
T1 construct: A biotin-tagged version of the CRD from bovine mincle was prepared in a bacterial expression system; made in house; host or cells: bacterial expression system
T1 sequence (E1BHM0 78-211 limits assumed): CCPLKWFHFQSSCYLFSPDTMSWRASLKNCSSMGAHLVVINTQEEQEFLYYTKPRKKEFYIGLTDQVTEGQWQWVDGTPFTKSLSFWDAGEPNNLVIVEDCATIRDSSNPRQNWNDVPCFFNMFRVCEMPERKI
Method: The collection of compounds was tested in competition binding experiments with immobilized bovine mincle CRD[8] (Fig. 3a).
Fig. 3 a) Data for inhibition of mannose-conjugated serum albumin binding to the CRD from bovine mincle by brartemicin and analogs. K I-values (average ± s.d. for three independent experiments) and affinities relative to α,α-trehalose. b) Top view and c) side view of highest scoring docking pose of brartemicin with bovine mincle. The Ca^2+ is coloured magenta. TEXT PRINTED IN THE PICTURE: (a) brartemicin: Ki (μM): 5.5 ± 0.9; Rel. affinity: 290 | (a) 2: Ki (μM): 5.4 ± 0.3; Rel. affinity: 300 | (a) 3: Ki (μM): 11.3 ± 0.9; Rel. affinity: 140 | (a) 4: Ki (μM): 164 ± 13; Rel. affinity: 9.8 | (a) epi-brartemicin: Ki (μM): 440 ± 70; Rel. affinity: 3.6 | (a) α,α-trehalose: Ki (μM): 1620 ± 70; Rel. affinity: 1
(§1) A biotin-tagged version of the CRD from bovine mincle was prepared in a bacterial expression system as previously described.[8] An equivalent fragment of human mincle was generated using an analogous system.[9] Binding competition assays, based on inhibition of binding of radioiodinated Man31-bovine serum albumin to the biotin-tagged CRDs immobilized on streptavidin-coated plates, were performed as previously described.[8] Results are reported as average ± standard deviation for at least 3 independent experiments, each performed in duplicate.

[2] = target: T2, CRD of human mincle (Homo sapiens, UniProt Q9ULY5); test: Competition binding assay with immobilized CRD of human mincle; details: Fig. S1
T2 construct: made in house; host or cells: bacterial expression system (analogous to the bovine one)
T2 sequence (Q9ULY5 87-206 limits assumed): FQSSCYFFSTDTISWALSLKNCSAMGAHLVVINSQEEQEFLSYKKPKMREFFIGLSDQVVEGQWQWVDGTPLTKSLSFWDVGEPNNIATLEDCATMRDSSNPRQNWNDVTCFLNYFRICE
Method: as §1

[3] = Solubility in aqueous media; assay type: physicochemical
[4] = tested on: cancer cells; details: cited from earlier work

| Structure (SMILES) | Ki [1] [µM] | Binding to CRD of human mincle [2] | Solubility in aqueous media [3] | Block of matrigel-invasion of cancer cells [4] | Reduction in binding affinity compared to brartemicin [1] | Rel. affinity (affinity relative to α,α-trehalose) [1] [fold] | Anti-invasive activity on cancer cells [4] |
| --- | --- | --- | --- | --- | --- | --- | --- |
| Cc1cc(O)cc(O)c1C(=O)OC[C@H]1O[C@H](O[C@H]2O[C@H](COC(=O)c3c(C)cc(O)cc3O)[C@@H](O)[C@H](O)[C@H]2O)[C@H](O)[C@@H](O)[C@@H]1O [brartemicin, 6,6′-Bis-(2,4-dihydroxy-6-methylbenzoate)-α,α-trehalose] | 5.5 ± 0.9 | binds with high affinity | soluble at millimolar concentrations | block matrigel-invasion of cancer cells |  |  |  |
| COc1cccc(C(=O)OC[C@H]2O[C@H](O[C@H]3O[C@H](COC(=O)c4cccc(OC)c4OC)[C@@H](O)[C@H](O)[C@H]3O)[C@H](O)[C@@H](O)[C@@H]2O)c1OC [compound 2] | 5.4 ± 0.3 |  |  |  | equipotent | 300 | in the same range as brartemicin |
| Cc1cc(O)cc(O)c1C(=O)OC[C@H]1O[C@H](O[C@H]2O[C@H](CO)[C@@H](O)[C@H](O)[C@H]2O)[C@H](O)[C@@H](O)[C@@H]1O [compound 4] | 164 ± 13 |  |  |  | roughly 30 fold | 9.8 |  |
| OC[C@H]1O[C@H](O[C@H]2O[C@H](CO)[C@@H](O)[C@H](O)[C@H]2O)[C@H](O)[C@@H](O)[C@@H]1O [α,α-trehalose, reference compound] | 1620 ± 70 |  |  |  |  | 1 |  |
| O=C(OC[C@H]1O[C@H](O[C@H]2O[C@H](COC(=O)c3ccccc3)[C@@H](O)[C@H](O)[C@H]2O)[C@H](O)[C@@H](O)[C@@H]1O)c1ccccc1 [compound 3] | 11.3 ± 0.9 |  |  |  | two-fold | 140 | in the same range as brartemicin |
| Cc1cc(O)cc(O)c1C(=O)OC[C@H]1O[C@@H](O[C@H]2O[C@H](COC(=O)c3c(C)cc(O)cc3O)[C@@H](O)[C@H](O)[C@H]2O)[C@H](O)[C@@H](O)[C@@H]1O [epi-brartemicin, 6,6′-Bis-(2,4-dihydroxy-6-methylbenzoate)-α,β-trehalose] | 440 ± 70 |  |  |  | ~100 fold | 3.6 |  |
